Source: patent US20230085307A1, “PYRIDAZINONE COMPOUND AND HERBICIDE” (NISSAN CHEMICAL CORPORATION, priority 2019, published 2023)

What was measured:
[1] = tested on: velvetleaf; assay: Test Example 5: herbicidal effect by foliage application, plastic box (Table 20, symbol M); type: in vivo, velvetleaf (Abutilon theophrasti); conditions: foliage application, 320 g/ha, evaluated three weeks after application
How it was run: (§1)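 Sow seeds spot-wise in sterilized diluvial soil; cover with ~1.5 cm soil. Grow 14 days in greenhouse, 25° C. to 30° C. Spray foliage with emulsion diluted to predetermined amount. Rate effect after 3 weeks.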

[2] = tested on: lambsquarters; assay: Test Example 4: herbicidal effect by soil treatment (Table 19, symbol O); type: in vivo, lambsquarters (Chenopodium album); conditions: amount of applied herbicide 320 g/ha
How it was run: (§2)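 Soil-surface application: an emulsion agent diluted with water to the predetermined dose is sprayed uniformly over seeds lying under roughly 1.5 cm of sterilized diluvial soil. Boxes stay in a greenhouse at 25° C. to 30° C. Three weeks later, each species is graded on previously defined criteria.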

[3] = tested on: green foxtail; assay: Test Example 5: herbicidal effect by foliage application, plastic box (Table 20, symbol G); type: in vivo, green foxtail (Setaria viridis); conditions: foliage application, 320 g/ha, evaluated three weeks after application
How it was run: as §1

[4] = tested on: blackgrass; assay: Test Example 4: herbicidal effect by soil treatment (Table 19, symbol J); type: in vivo, blackgrass (Alopecurus myosuroides); conditions: amount of applied herbicide 320 g/ha
How it was run: as §2

[5] = tested on: lambsquarters; assay: Test Example 5: herbicidal effect by foliage application, plastic box (Table 20, symbol O); type: in vivo, lambsquarters (Chenopodium album); conditions: foliage application, 320 g/ha, evaluated three weeks after application
How it was run: as §1

[6] = tested on: velvetleaf; assay: Test Example 4: herbicidal effect by soil treatment (Table 19, symbol M); type: in vivo, velvetleaf (Abutilon theophrasti); conditions: amount of applied herbicide 320 g/ha
How it was run: as §2

[7] = tested on: wheat; assay: Test Example 5: effect on crop by foliage application, plastic box (Table 20, symbol e); type: in vivo; conditions: 320 g/ha, evaluated three weeks after application
Source text: (§3) [Test Example 5] Herbicidal Effect Test by Foliage Application
(§4) Sterilized diluvial soil was placed in a plastic box having a length of 21 cm, a width of 13 cm, and a depth of 7 cm. The seeds of each of southern crabgrass, green foxtail, barnyard grass, wild oat, blackgrass, Italian ryegrass, windgrass, velvetleaf, redroot pigweed, lambsquarters, chickweed, false cleavers, persian speedwell, corn, soybean, rice, wheat, beet, and rapeseed were sowed in a spot-like manner and covered with the soil having a thickness of about 1.5 cm. Thereafter, the plants were grown in a greenhouse at 25° C. to 30° C. After 14-day growth of the plants, the emulsion agent of the compound of the present invention prepared according to Formulation Example 2 was diluted with water so as to achieve a predetermined herbicide amount, and the diluted emulsion agent was uniformly applied to a foliage part with a small-sized spray. Three weeks after the herbicide application, the effect of the herbicide on each plant was evaluated according to the criteria of Test Example 1.

[8] = tested on: southern crabgrass; assay: Test Example 5: herbicidal effect by foliage application, plastic box (Table 20, symbol F); type: in vivo, southern crabgrass (Digitaria ciliaris); conditions: foliage application, 320 g/ha, evaluated three weeks after application
How it was run: as §1

[9] = tested on: redroot pigweed; assay: Test Example 4: herbicidal effect by soil treatment (Table 19, symbol N); type: in vivo, redroot pigweed (Amaranthus retroflexus); conditions: amount of applied herbicide 320 g/ha
How it was run: as §2

[10] = tested on: barnyard grass; assay: Test Example 4: herbicidal effect by soil treatment (Table 19, symbol H); type: in vivo, barnyard grass (Echinochloa crus-galli); conditions: amount of applied herbicide 320 g/ha
How it was run: as §2

[11] = tested on: rapeseed; assay: Test Example 4: effect on crop by soil treatment (Table 19, symbol g); type: in vivo; conditions: amount of applied herbicide 320 g/ha
Source text: [Test Example 4] Herbicidal Effect Test by Soil Treatment
as §4, with “Subsequently,” for “Thereafter, the plants were grown in a greenhouse at 25° C. to 30° C. After 14-day growth of the plants,”, “the surface of the soil” for “a foliage part”, “spray. The plastic box was placed in a greenhouse at 25° C. to 30° C. for growth of the plants.” for “spray.”

[12] = tested on: Chinese sprangletop; assay: Test Example 3: herbicidal effect by foliage application, Wagner pot (Table 18, symbol D); type: in vivo, chinese sprangletop (Leptochloa chinensis); conditions: amount of applied herbicide 320 g/ha
How it was run: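 Plants were sown in alluvial soil held under 0.1–0.5 cm standing water and grown 14 days in a greenhouse at 25–30 °C. An emulsifiable formulation, water-diluted to the set dose, was then sprayed onto the foliage, and effects were scored three weeks later using previously defined criteria.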

[13] = tested on: blackgrass; assay: Test Example 5: herbicidal effect by foliage application, plastic box (Table 20, symbol J); type: in vivo, blackgrass (Alopecurus myosuroides); conditions: foliage application, 320 g/ha, evaluated three weeks after application
How it was run: as §1

[14] = tested on: wild oat; assay: Test Example 5: herbicidal effect by foliage application, plastic box (Table 20, symbol I); type: in vivo, wild oat (Avena fatua); conditions: foliage application, 320 g/ha, evaluated three weeks after application
How it was run: as §1

[15] = tested on: directly sowed rice; assay: Test Example 3: effect on crop by foliage application, Wagner pot (Table 18, symbol b); type: in vivo; conditions: amount of applied herbicide 320 g/ha
Procedure: [Test Example 3] Herbicidal Effect Test by Foliage Application After alluvial soil was placed into 1/10000 are of Wagner pot, water was poured and mixed to form a submerged condition having a water depth of 0.1 cm to 0.5 cm. Seeds of barnyard grass, Chinese sprangletop, rice flat sedge, and rice were sowed and the pot was placed in a greenhouse at 25° C. to 30° C. for growth of the plants. After 14-day growth of the plants, the emulsion agent of the compound of the present invention prepared according to Formulation Example 2 was diluted with water so as to achieve a predetermined herbicide amount, and the diluted emulsion agent was uniformly applied to a foliage part with a small-sized spray. Three weeks after the herbicide application, the effect of the herbicide on each plant was evaluated according to the criteria of Test Example 1.

[16] = tested on: corn; assay: Test Example 5: effect on crop by foliage application, plastic box (Table 20, symbol c); type: in vivo; conditions: 320 g/ha, evaluated three weeks after application
Source text: as §3, §4

[17] = tested on: persian speedwell; assay: Test Example 5: herbicidal effect by foliage application, plastic box (Table 20, symbol R); type: in vivo, Persian speedwell (Veronica persica); conditions: foliage application, 320 g/ha, evaluated three weeks after application
How it was run: as §1

[18] = tested on: green foxtail; assay: Test Example 4: herbicidal effect by soil treatment (Table 19, symbol G); type: in vivo, green foxtail (Setaria viridis); conditions: amount of applied herbicide 320 g/ha
How it was run: as §2

[19] = tested on: beet; assay: Test Example 5: effect on crop by foliage application, plastic box (Table 20, symbol f); type: in vivo; conditions: 320 g/ha, evaluated three weeks after application
Source text: as §3, §4

melting point: 182 to 184 °C
Structure (SMILES): COc1ccccc1-c1sc2ccc(C3CC3)cc2c1-c1c(O)c(C)nn(C)c1=O [Compound No. 2-160, 4-(5-cyclopropyl-2-(2-methoxyphenyl)benzo[b]thiophen-3-yl)-5-hydroxy-2,6-dimethylpyridazin-3(2H)-one]
herbicidal effect on M: velvetleaf (criteria 0-5) [1]: 4 (Herbicidal rate of 70% or more and less than 90%)
O: lambsquarters, herbicidal effect rating [2]: 0 (Herbicidal rate of 5% or less (almost no effect))
herbicidal effect on G: green foxtail (criteria 0-5) [3]: 4 (Herbicidal rate of 70% or more and less than 90%)
J: blackgrass, herbicidal effect rating [4]: 0 (Herbicidal rate of 5% or less (almost no effect))
herbicidal effect on O: lambsquarters (criteria 0-5) [5]: 2 (Herbicidal rate of 20% or more and less than 40%)
M: velvetleaf, herbicidal effect rating [6]: 0 (Herbicidal rate of 5% or less (almost no effect))
effect on crop e: wheat (criteria 0-5) [7]: 1 (Herbicidal rate of 5% or more and less than 20%)
herbicidal effect on F: southern crabgrass (criteria 0-5) [8]: 0 (Herbicidal rate of 5% or less (almost no effect))
N: redroot pigweed, herbicidal effect rating [9]: 0 (Herbicidal rate of 5% or less (almost no effect))
H: barnyard grass, herbicidal effect rating [10]: 0 (Herbicidal rate of 5% or less (almost no effect))
g: rapeseed, effect on crop rating [11]: 1 (Herbicidal rate of 5% or more and less than 20%)
herbicidal effect on D: Chinese sprangletop [12]: 3 (Herbicidal rate of 40% or more and less than 70%)
herbicidal effect on J: blackgrass (criteria 0-5) [13]: 4 (Herbicidal rate of 70% or more and less than 90%)
herbicidal effect on I: wild oat (criteria 0-5) [14]: 0 (Herbicidal rate of 5% or less (almost no effect))
effect on crop b: directly sowed rice [15]: 0 (Herbicidal rate of 5% or less (almost no effect))
effect on crop c: corn (criteria 0-5) [16]: 0 (Herbicidal rate of 5% or less (almost no effect))
herbicidal effect on R: persian speedwell (criteria 0-5) [17]: 5 (Herbicidal rate of 90% or more (almost completely withered))
G: green foxtail, herbicidal effect rating [18]: 0 (Herbicidal rate of 5% or less (almost no effect))
effect on crop f: beet (criteria 0-5) [19]: 5 (Herbicidal rate of 90% or more (almost completely withered))
